# Key:
# [1] = system: enterobacteria; details: against the enterobacteria; cited from earlier work
# [2] = target: T1, β-lactamase from Citrobacter freundii (Citrobacter freundii, UniProt P05193); test: Stability against β-lactamase, relative hydrolysis; assay type: biochemical; details: Citrobacter freundii enzyme; 100 μM; relative(percentage), Cephaloridine taken as 100; OD at 260 nm
# T1 construct: directly isolated from Enterobacter cloacae P99, E. coli TEM and Citrobacter freundii; endogenous in cells
# T1 sequence (P05193 21-381): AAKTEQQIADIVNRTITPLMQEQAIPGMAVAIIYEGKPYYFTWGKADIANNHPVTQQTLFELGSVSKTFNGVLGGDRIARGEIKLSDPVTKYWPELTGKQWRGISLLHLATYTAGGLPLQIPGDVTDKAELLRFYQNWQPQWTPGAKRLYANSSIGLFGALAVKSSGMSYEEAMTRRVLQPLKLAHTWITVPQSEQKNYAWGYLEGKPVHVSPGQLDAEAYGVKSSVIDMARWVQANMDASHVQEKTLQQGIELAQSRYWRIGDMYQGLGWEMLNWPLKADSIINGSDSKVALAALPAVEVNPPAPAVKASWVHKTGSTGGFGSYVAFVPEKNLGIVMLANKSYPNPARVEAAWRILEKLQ
# Experimental: (§1) In order to establish the usefulness in clinical applications of the compounds provided by the invention, the compound of Example 18 was tested for stability against the β-lactamase and for antibacterial activity on systemic infection model.
# (§2) First, the stability against the β-lactamase was tested by determining the relative(percentage) hydrolysis of the compound of Example 18, relative to that of Cephaloridine, taking the absolute rate of Cephaloridine as 100.
# (§3) The β-lactamases employed in the test were directly isolated from Enterobacter cloacae P99, E. coli TEM and Citrobacter freundii, and the antibiotics for comparison were Cephaloridine, Cephradine, Cefoperazone and Cefotaxime.
# (§4) Cephaloridine, other known antibiotics and the compound of Example 18 were reacted with each of the enzymes isolated from the strains and the OD were determined at 260 nm, λmax of Cephaloridine. The relative hydrolysis of various compounds were calculated relative to the OD of Cephaloridine.
# [3] = target: T2, β-lactamase from E. coli TEM (Escherichia coli, UniProt P62593); test: Stability against β-lactamase, relative hydrolysis; assay type: biochemical; details: E. coli TEM enzyme; 100 μM; relative(percentage), Cephaloridine taken as 100; OD at 260 nm
# T2 construct: directly isolated from Enterobacter cloacae P99, E. coli TEM and Citrobacter freundii; endogenous in cells; host or cells: E. coli TEM (plasmid-carried enzyme of the strain)
# T2 sequence (P62593 24-286 limits assumed): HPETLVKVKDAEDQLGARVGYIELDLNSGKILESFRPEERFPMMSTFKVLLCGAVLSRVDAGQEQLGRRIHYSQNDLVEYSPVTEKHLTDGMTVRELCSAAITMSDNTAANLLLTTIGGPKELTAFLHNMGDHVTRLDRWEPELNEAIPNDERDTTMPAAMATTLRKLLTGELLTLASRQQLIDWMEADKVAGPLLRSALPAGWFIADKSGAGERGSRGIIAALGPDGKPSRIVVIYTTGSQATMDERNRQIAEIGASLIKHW
# Experimental: as §1, §2, §3, §4
# [4] = system: Staphyloccus aureus 285; test: Antibacterial activity, MIC by Agar dilution method, standard test strain 5; assay type: cell-based; details: 10^7 CFU/ml, 37° C., 18 hours
# Experimental: (§5) The antibacterial activity was determined by an Agar dilution method as described below.
# (§6) That is, the two-fold serial dilutions of the antibacterial compounds (1000 μg compound/ml) were prepared and dispersed in Muller Hinton Agar in a petri dish to a concentration of 100~0.002 μg/ml. The culture broths of standard test strains were inoculated on the medium to a concentration 10^7 CFU/ml, and incubated at 37° C. for 18 hours. The concentration of compounds(I) at which the strains were not grown was regarded as minimum inhibition concentration (MIC).
# (§7) The results of antibacterial activity test of the representative examples of the compound (I) against 20 standard test strains shown in terms of MIC were indicated in Table 1.
# 5. Staphyloccus aureus 285
# [5] = system: Streptococcus pyogenes A 77; test: Antibacterial activity, MIC by Agar dilution method, standard test strain 2; assay type: cell-based; details: A77, 10^7 CFU/ml, 37° C., 18 hours
# Experimental: as §5, §6, §7
# 2. Streptococcus pyogenes A 77
# [6] = system: Klebsiella oxytoca 1082E; test: Antibacterial activity, MIC by Agar dilution method, standard test strain 17; assay type: cell-based; details: 10^7 CFU/ml, 37° C., 18 hours
# Experimental: as §5, §6, §7
# [7] = system: Pseudomonas aeruginosa 1771M; test: Antibacterial activity, MIC by Agar dilution method, standard test strain 15; assay type: cell-based; details: 18 h
# Experimental: as §5, §6, §7
# 15. Pseudomonas aeruginosa 1771M
# [8] = system: Enterobacter cloacae 1321E; test: Antibacterial activity, MIC by Agar dilution method, standard test strain 20; assay type: cell-based; details: Enterobacter cloacae 1321E; 10^7 CFU/ml, 37° C., 18 hours; read-out: MIC
# Experimental: as §5, §6, §7
# 20. Enterobacter cloacae 1321E
# [9] = system: Escherichia coli DC 2; test: Antibacterial activity, MIC by Agar dilution method, standard test strain 9; assay type: cell-based; details: Escherichia coli, DC2, 18 h
# Experimental: as §5, §6, §7
# [10] = system: Staphylococcus aureus 503; test: Antibacterial activity, MIC by Agar dilution method, standard test strain 6; assay type: cell-based; details: 10^7 CFU/ml, 37° C., 18 hours
# Experimental: as §5, §6, §7
# 6. Staphylococcus aureus 503
# [11] = system: Enterobacter cloacae P99; test: Antibacterial activity, MIC by Agar dilution method, standard test strain 19; assay type: cell-based; details: P99, 18 h
# Experimental: as §5, §6, §7
# 19. Enterobacter cloacae P99
# [12] = system: Streptococcus pyogenes A 308; test: Antibacterial activity, MIC by Agar dilution method, standard test strain 1; assay type: cell-based; details: A308, 10^7 CFU/ml, 37° C., 18 hours
# Experimental: as §5, §6, §7
# 1. Streptococcus pyogenes A 308
# [13] = system: Salmonella typhimurium; test: Antibacterial activity, MIC by Agar dilution method, standard test strain 16; assay type: cell-based; details: Salmonella enterica, 10^7 CFU/ml, 37° C., 18 hours
# Experimental: as §5, §6, §7
# 16. Salmonella typhimurium
# [14] = system: Pseudomonas aeruginosa 1771; test: Antibacterial activity, MIC by Agar dilution method, standard test strain 14; assay type: cell-based; details: 10^7 CFU/ml, 37° C., 18 hours
# Experimental: as §5, §6, §7
# 14. Pseudomonas aeruginosa 1771
# [15] = system: Staphylococcus aureus SG 511; test: Antibacterial activity, MIC by Agar dilution method, standard test strain 4; assay type: cell-based; details: SG511, 10^7 CFU/ml, 37° C., 18 hours
# Experimental: as §5, §6, §7
# 4. Staphylococcus aureus SG 511
# [16] = target: T3, β-lactamase from Enterobacter cloacae P99 (Enterobacter cloacae, UniProt P05364); test: Stability against β-lactamase, relative hydrolysis; assay type: biochemical; details: Enterobacter cloacae P99 enzyme; 100 μM; relative(percentage), Cephaloridine taken as 100; OD at 260 nm
# T3 construct: directly isolated from Enterobacter cloacae P99, E. coli TEM and Citrobacter freundii; endogenous in cells; host or cells: Enterobacter cloacae P99
# T3 sequence (P05364 21-381): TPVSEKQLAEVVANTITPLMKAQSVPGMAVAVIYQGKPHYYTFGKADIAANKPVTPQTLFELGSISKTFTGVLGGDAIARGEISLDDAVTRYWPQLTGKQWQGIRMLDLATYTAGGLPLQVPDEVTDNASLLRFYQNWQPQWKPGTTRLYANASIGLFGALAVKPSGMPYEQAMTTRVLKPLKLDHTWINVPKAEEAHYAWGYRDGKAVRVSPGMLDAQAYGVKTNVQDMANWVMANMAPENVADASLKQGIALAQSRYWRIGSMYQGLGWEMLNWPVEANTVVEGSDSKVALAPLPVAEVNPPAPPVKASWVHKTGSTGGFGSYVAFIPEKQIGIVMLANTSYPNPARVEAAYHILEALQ
# Experimental: as §3
# The relative hydrolysis of various compounds were calculated relative to the OD of Cephaloridine.
# [17] = system: Escherichia coli 1507E; test: Antibacterial activity, MIC by Agar dilution method, standard test strain 11; assay type: cell-based; details: Escherichia coli 1507E; 10^7 CFU/ml, 37° C., 18 hours; read-out: MIC
# Experimental: as §5, §6, §7
# [18] = system: Pseudomonas aeruginosa 1592E; test: Antibacterial activity, MIC by Agar dilution method, standard test strain 13; assay type: cell-based; details: 10^7 CFU/ml, 37° C., 18 hours
# Experimental: as §5, §6, §7
# 13. Pseudomonas aeruginosa 1592E
# [19] = system: Pseudomonas aeruginosa 9027; test: Antibacterial activity, MIC by Agar dilution method, standard test strain 12; assay type: cell-based; details: 10^7 CFU/ml, 37° C., 18 hours
# Experimental: as §5, §6, §7
# 12. Pseudomonas aeruginosa 9027
# [20] = system: Streptococcus faecium MD 86; test: Antibacterial activity, MIC by Agar dilution method, standard test strain 3; assay type: cell-based; details: Enterococcus faecium, MD86, 10^7 CFU/ml, 37° C., 18 hours
# Experimental: as §5, §6, §7
# 3. Streptococcus faecium MD 86
# [21] = system: Escherichia coli O 55; test: Antibacterial activity, MIC by Agar dilution method, standard test strain 7; assay type: cell-based; details: O55; Escherichia coli O 55; 10^7 CFU/ml, 37° C., 18 hours; read-out: MIC
# Experimental: as §5, §6, §7
# [22] = system: Escherichia coli DC O; test: Antibacterial activity, MIC by Agar dilution method, standard test strain 8; assay type: cell-based; details: Escherichia coli DC O; 10^7 CFU/ml, 37° C., 18 hours; read-out: MIC
# Experimental: as §5, §6, §7
# [23] = system: Klebsiella aerogenes 1522E; test: Antibacterial activity, MIC by Agar dilution method, standard test strain 18; assay type: cell-based; details: Klebsiella aerogenes 1522E; 10^7 CFU/ml, 37° C., 18 hours; read-out: MIC
# Experimental: as §5, §6, §7
# 18. Klebsiella aerogenes 1522E
# [24] = system: Escherichia coli TEM; test: Antibacterial activity, MIC by Agar dilution method, standard test strain 10; assay type: cell-based; details: Escherichia coli TEM; 10^7 CFU/ml, 37° C., 18 hours; read-out: MIC
# Experimental: as §5, §6, §7
# [25] = system: Pseudomonas; details: against Pseudomonas, compared with other known cephalosporins; cited from earlier work
# [26] = system: Staphylococcus; details: against Staphylococcus; cited from earlier work
structure (smiles),measurement,setting,value
CO/N=C(\C(=O)N[C@@H]1C(=O)N2C(C(=O)O)=C(CSc3nnnn3C)CS[C@H]12)c1csc(N)n1 [Cefmenoxime],antibacterial activity (in words),[1],strong antibacterial activities
CCN1CCN(C(=O)N[C@@H](C(=O)N[C@@H]2C(=O)N3C(C(=O)O)=C(CSc4nnnn4C)CS[C@H]23)c2ccc(O)cc2)C(=O)C1=O [Cefoperazone],Relative hydrolysis by β-lactamase,[2],1.2
same,Relative hydrolysis by β-lactamase,[3],38.6
"CO/N=C(\C(=O)N[C@@H]1C(=O)N2C(C(=O)O)=C(COC(C)=O)CS[C@H]12)c1csc(N)n1 [Cefotaxime, reference compound]",MIC,[4],1.56 µg/mL
same,MIC,[5],0.004 µg/mL
same,MIC,[6],0.781 µg/mL
same,MIC,[7],0.098 µg/mL
same,MIC,[8],0.013 µg/mL
same,MIC,[9],0.013 µg/mL
same,MIC,[10],0.781 µg/mL
same,MIC,[11],100 µg/mL
same,MIC,[12],0.007 µg/mL
same,MIC,[13],0.025 µg/mL
same,MIC,[14],6.25 µg/mL
same,MIC,[15],1.56 µg/mL
same,Relative hydrolysis by β-lactamase,[16],0.0
same,MIC,[17],0.025 µg/mL
same,MIC,[18],12.5 µg/mL
same,MIC,[19],12.5 µg/mL
same,MIC,[20],100 µg/mL
same,MIC,[21],0.007 µg/mL
same,MIC,[22],0.025 µg/mL
same,MIC,[23],0.013 µg/mL
same,antibacterial activity (in words),[1],strong antibacterial activities
same,Relative hydrolysis by β-lactamase,[2],0.6
same,Relative hydrolysis by β-lactamase,[3],0.6
same,MIC,[24],0.025 µg/mL
CC(C)(O/N=C(\C(=O)N[C@@H]1C(=O)N2C(C(=O)[O-])=C(C[n+]3ccccc3)CS[C@H]12)c1csc(N)n1)C(=O)O [Ceftazidime],antibacterial activity (in words),[25],relatively stronger
same,antibacterial activity (in words),[1],strong antibacterial activities
same,antibacterial activity (in words),[26],poor antibacterial activity
CO/N=C(\C(=O)N[C@@H]1C(=O)N2C(C(=O)O)=C(CSc3nc(=O)c(=O)[nH]n3C)CS[C@H]12)c1csc(N)n1 [Ceftriaxone],antibacterial activity (in words),[1],strong antibacterial activities
O=C(Cc1cccs1)N[C@@H]1C(=O)N2C(C(=O)[O-])=C(C[n+]3ccccc3)CS[C@H]12 [Cephaloridine],Relative hydrolysis by β-lactamase,[16],100
same,Relative hydrolysis by β-lactamase,[2],100
same,Relative hydrolysis by β-lactamase,[3],100
CC1=C(C(=O)O)N2C(=O)[C@@H](NC(=O)[C@H](N)C3=CCC=CC3)[C@H]2SC1 [Cephradine],Relative hydrolysis by β-lactamase,[16],14.9
same,Relative hydrolysis by β-lactamase,[2],13.6
same,Relative hydrolysis by β-lactamase,[3],0.8

# Source: patent US5336673A, “3-substituted cephem compounds” (priority 1990, dated 1994)
